# Laboratory results reported in patent US6369101B1, “Therapeutic method to treat herpes virus infection” (Regents of the University of Minnesota, priority 1999, dated 2002).
# Counter-ions that a name gives are not always drawn. Like-named read-outs stand apart in the source and are kept apart here.
# Columns and labels:
# [1] = system: Primary human foreskin fibroblast cells (HFF); assay: Cell proliferation assay (cytotoxicity) in HFF cells; assay type: cell-based; details: for Qualitative Cytotoxic Effect at 2.0 ml dose: HFF cells, solution conc. per compound (ng/ml) (Acyclovir 250); for CC50: Human foreskin fibroblast cells, reduces growth of uninfected cells by 50%
# Procedure: (§1) Human laryngeal epithelial carcinoma cells (HEp-2, ATCC, Rockville, Md.) were used for testing of antiviral compounds by cytopathic effect (CPE) inhibition and plaque reduction assay. […] HEp-2, African green monkey kidney cells (Vero, ATCC), HFF and primary rabbit kidney cells were used to determine the cytotoxic effect of compounds of formula I. These cells were propagated in Dulbeco's modified Eagle's medium (DMEM) (Sigma, USA) supplemented with 10% inactivated fetal calf serum (FCS), 25 mM HEPES, 0.2% sodium bicarbonate and 1% penicillin/-streptomycin at 37° C. in the presence of 5% CO2.
# (§2) HFF, Vero and HEp-2 cells were seeded in 24-well tissue culture plates at a concentration of […] in DMEM containing 10% FCS and incubated for 24 hours at 37° C. in the presence of 5% CO2. To the monolayer of these cells 0.5, 1.0, 1.5 and 2.0 ml of solution of antiviral compounds were added in the respective wells in duplicate and the cells were then incubated in a 5% CO2 incubator at 37° C. for 72 hours. The cells were observed daily for any change in morphology. […] At the end of this time, the media-drug solution was removed and the cells washed. One ml of 0.25% trypsin was added to each well and incubated until the cells start to come off of the plate. The cells-media mixture was then pipetted up and down several times to resuspend the cells and 0.2 ml of the cell suspension was added to 9.8 ml of trypan blue and cells were counted using hemocytometer. Each sample was counted three times with three replicate wells per sample.
# HSV-1 strain E-377 = assay: CPE inhibition assay, HSV-1 E377 in human foreskin fibroblast cells; on Qualitative CPE at 2.0 ml dose HSV-1 E377: key: +++ = Complete cytopathic effect; ++ = Moderate cytopathic effect; + = Minimum cytopathic effect; − = No cytopathic effect; assay type: cell-based, herpes simplex virus type 1; details: for Qualitative CPE at 2.0 ml dose HSV-1 E377: solution conc. per compound (ng/ml) (Acyclovir 250); for EC50: Human alphaherpesvirus 1, HFF, read-out: EC50 HSV-1 E377
# Procedure: (§3) Stock solutions of the compounds used for the testing of antiviral activity against HSV-1 and HSV-2 were prepared in distilled water, filtered through 0.2 μm filter (Acrodisco®, Gelman Sciences, USA) and stored at room temperature until used.
# (§4) Human laryngeal epithelial carcinoma cells (HEp-2, ATCC, Rockville, Md.) were used for testing of antiviral compounds by cytopathic effect (CPE) inhibition and plaque reduction assay. Primary human foreskin fibroblast cells (HFF) obtained from Dr. E. R. Kern (Department of Pediatrics, University of Alabama Medical School, 309 Bevill Biomedical Research Building, 845 19th Street South, Birmingham, Ala., 35294-2170), were used for cytopathic effect (CPE) inhibition assay. HEp-2, African green monkey kidney cells (Vero, ATCC), HFF and primary rabbit kidney cells were used to determine the cytotoxic effect of compounds of formula I. These cells were propagated in Dulbeco's modified Eagle's medium (DMEM) (Sigma, USA) supplemented with 10% inactivated fetal calf serum (FCS), 25 mM HEPES, 0.2% sodium bicarbonate and 1% penicillin/-streptomycin at 37° C. in the presence of 5% CO2.
# (§5) The antiviral activity of the test compounds was determined against HSV-1 strain F, HSV-2 strain G (ATCC), HSV-1 strain E-377 and HSV-2 strain MS (Dr. E. R. Kern, see above), CMV strain AD 169 (NIH), HCMV (NIH), MCMV (NIH), and VZV strain Ellen (NIH). Highly infective virus stocks of HSV-1 and HSV-2 were prepared by infecting a confluent monolayer of HEp-2 (ATCC) or HFF in 150 cm^2 plastic tissue culture flasks (Falcon, USA) at a multiplicity of infection of 0.5 in DMEM supplemented with 10% inactivated fetal calf serum and 1% penicillin/streptomycin at 37° C. in the presence of 5% CO2. The infected cells were disrupted through three freeze/thaw cycles, and viruses were clarified from large cell debris by low speed centrifugation at 3000 rpm for 10 minutes. The virus suspension was separated, aliquoted and stored at −80° C. until assayed or used for animal infection. The stock HSV-1 (E377) and HSV-2 (MS strain) contained 3.5×10^8 and 1.1×10^7 pfu/ml respectively.
# (§6) Low passage HFF cells were seeded into 96-well tissue culture plates 24 hours prior to use at a cell concentration of 2.5×10^4 cells per ml in 0.2 ml of DMEM supplemented with 10% fetal calf serum. After 24 hours of incubation at 37° C. in the presence of 5% CO2, medium was removed and the test compounds were diluted two-fold in DMEM in the 96-well tissue culture plate containing monolayer. […] For both HSV-1 and HSV-2 assays, the virus concentration utilized was 1000 pfu/ml and for HCMV, MCMV, and VZV assay 2500 pfu/ml were used. The plates were then incubated at 37° C. in the presence of 5% CO2 for two to three days for HSV-1 and HSV-2, 10 days for VZV and 14 days for HCMV and MCMV. The virus induced cytopathic effect (CPE) was monitored microscopically every day. CPE of HSV-1 was recognized by cell rounding and clumping, while HSV-2 formed large syncytia along with rounding and clumping of cells. […] EC50s were estimated from graphical plots of percent CPE against the concentration of the test compounds. The EC50s for each compound are the mean of EC50s for three or more independent experiments. After three days of incubation period, media was aspirated and the cells stained with a 0.1% crystal violet solution for 30 minutes. The stain was then removed and the plates were rinsed with tap water, air dried and retained.
# HSV-2 strain G = assay: CPE inhibition, HSV-2 strain G in HEp-2 cells; further: key: +++ = Complete cytopathic effect; ++ = Moderate cytopathic effect; + = Minimum cytopathic effect; − = No cytopathic effect; assay type: cell-based, herpes simplex virus type 2; details: conc. per compound (ng/ml)
# From the text: as §4, §5, §6
# [2] = system: Human laryngeal epithelial carcinoma cells (HEp-2); assay: Cytotoxicity in HEp-2 cells; assay type: cell-based; details: HEp-2 cells; conc. per compound (ng/ml)
# Procedure: as §1, §2
# HSV-2 strain MS = assay: CPE inhibition assay, HSV-2 MS in human foreskin fibroblast cells; on Qualitative CPE at 2.0 ml dose HSV-2 MS: key: +++ = Complete cytopathic effect; ++ = Moderate cytopathic effect; + = Minimum cytopathic effect; − = No cytopathic effect; assay type: cell-based, herpes simplex virus type 2; details: for Qualitative CPE at 2.0 ml dose HSV-2 MS: HFF cells, solution conc. per compound (ng/ml) (Acyclovir 250); for EC50: Human alphaherpesvirus 2, HFF, read-out: EC50 HSV-2 MS
# Procedure: as §3, §4, §5, §6
# HSV-1 strain F = assay: CPE inhibition, HSV-1 strain F in HEp-2 cells; further: key: +++ = Complete cytopathic effect; ++ = Moderate cytopathic effect; + = Minimum cytopathic effect; − = No cytopathic effect; assay type: cell-based, herpes simplex virus type 1; details: conc. per compound (ng/ml)
# From the text: as §4, §5, §6
# [3] = Cell proliferation assay (cytotoxicity) in HFF cells; assay type: cell-based, human; details: Human foreskin fibroblast cells, reduces growth of uninfected cells by 50%
# Procedure: as §1, §2
# Epstein-Barr Virus = assay: VCA expression in EBV-infected Daudi cells; details: Epstein-Barr Virus, Daudi cells, VCA; test compounds in DMSO
# From the text: Raji is a Burkitt's lymphoma cell line containing 60 EBV genome/cell, and was the primary cell used for screening antiviral activity against EBV early antigen (EA) expression. […] It spontaneously expresses EBV EA in 0.25-0.5% of the cells. It was used in follow-up studies to confirm activity. These cell lines respond to superinfection by EBV by expressing EA-diffuse component EA (D), EA restricted component EA (R), and viral capsid antigen (VCA). […] The cultures were fed twice weekly and the cell concentration was adjusted to 3×10^5/ml. The cells were kept at 37° C. in humidified atmosphere with 5% CO2.
# Cells were infected with the P3HR-1 strain of HBV and the test compound was added after adsorption (45 minutes at 37° C.) and washing of the cell cultures. The cultures were incubated for two days in complete medium to allow viral gene expression. Following the 48 hours of incubation, the numbers of cells of each sample was counted and smears were made. Monoclonal antibodies to the different EA components and VCA were then added to the cells and then incubated and washed. This is followed by a fluorescein conjugated rabbit anti-mouse IgG antibody, and the number of fluorescence cells in the smear were counted. The total number of cells in the cultures positive for EA or VCA were then calculated and compared.
# Human Cytomegalovirus = assay: CPE inhibition in stationary cells (visual), HCMV in HFF cells; assay type: cell-based; details: test compounds in DMSO
# Varicella-Zoster Virus = assay: CPE inhibition in stationary cells (visual), VZV in HFF cells; assay type: cell-based; details: test compounds in DMSO
# [4] = primary human foreskin fibroblast (HFF) cells
Compound,melting point,CC50 [1],EC50 HSV-1 E377 (HSV-1 strain E-377; CPE inhibition in HFF cells),Cytopathic Effect (CPE) Inhibition HSV-2 Strain G (HSV-2 strain G),Cell Cytotoxicity [2],EC50 HSV-2 MS (HSV-2 strain MS; CPE inhibition in HFF cells),Cytopathic Effect (CPE) Inhibition HSV-1 Strain F (HSV-1 strain F),also measured
"Cc1ccc(S(=O)(=O)OC2CC[C@@]3(C)C(CC[C@]4(C)C3CCC3C5C6OCC5(CCC6(C)C)CC[C@]34C)C2(C)C)cc1 (stereo partly drawn) (as salt: tosylate) [Example 9, Allobetulin Tosylate]",180 to 182.6 °C (dec.),,,,,,,
"CC(=O)OC1CCC2(C)C(CCC3(C)C2CCC2C4C5OC(=O)C4(CCC5(C)C)CCC23C)C1(C)C (stereo not drawn) [3β-Acetoxy-19αH-19,28lactone-oleanan, Allobetulin-3-acetyl lactone (3β-Acetoxy-19αH-19,28-lactone-oleanane)]",,0.225 µg/mL,0.225 µg/mL,++,−,0.125 µg/mL,++,Qualitative Cytotoxic Effect at 2.0 ml dose [1]: +; Qualitative CPE at 2.0 ml dose HSV-1 E377 (HSV-1 strain E-377; HFF cells): +++; Qualitative CPE at 2.0 ml dose HSV-2 MS (HSV-2 strain MS): ++
"CC1(C)CCC23CCC4(C)C(CCC5C6(C)CCC(OC(=O)CO)C(C)(C)C6CCC54C)C2C1OC3 (stereo not drawn) [Allobetulin 3-glycolate, Allobetulin, 3-Glycolate]",,>0.25 µg/mL,>0.25 µg/mL,++,−,0.125 µg/mL,+++,
"CC1(C)CCC23CC[C@@]4(C)C(CCC5[C@@]6(C)CCC(OP(=O)(O)O)C(C)(C)C6CC[C@]54C)C2C1OC3 (stereo partly drawn) [Allobetulin 3-phosphate, Allobetulin Phosphate]",,>0.125 µg/mL,>0.25 µg/mL,++,−,0.25 µg/mL,+++,"anti HSV-1 activity (in words) (HSV-1 strain E-377; HFF cells, HSV-1 (E377)): significant activity"
"CC1(C)CCC23CCC4(C)C(CCC5C6(C)CCC(OC(=O)c7ccccc7C(=O)O)C(C)(C)C6CCC54C)C2C1OC3 (stereo not drawn) [Allobetulin 3-phthalate, Allobetulin, 3-Phthalate]",,>0.25 µg/mL,>0.25 µg/mL,++,−,0.25 µg/mL,++,
"CC1(C)CCC23CCC4(C)C(CCC5C6(C)CCC(OC(=O)CCC(=O)O)C(C)(C)C6CCC54C)C2C1OC3 (stereo not drawn) [Allobetulin Succinate, Allobetulin, 3-Succinate]",,>0.25 µg/mL,>0.25 µg/mL,+,−,>0.25 µg/mL,++,
"CC1(C)CCC23CC[C@]4(C)C(CCC5[C@@]6(C)CCC(O)C(C)(C)C6CC[C@]54C)C2C1OC3=O (stereo partly drawn) [Allobetulin lactone, Allobetulin-Lactone]",,,,++,−,,+++,CC50 at 72 h [3]: > 0.125 µg/mL; EC50 (HSV-1 strain E-377): > 0.125 µg/mL; EC50 (HSV-2 strain MS): 0.2 µg/mL
"CC1(C)CCC23CC[C@]4(C)C(CCC5[C@@]6(C)C=C(O)C(=O)C(C)(C)C6CC[C@]54C)C2C1OC3 (stereo partly drawn) [Allobetulon-1,2-ene-2-ol, Allobetulon 1,2-ene-2-ol.]",236.8 to 238.8 °C,,,++,−,,++,"CC50 at 72 h [3, 4]: 0.22 µg/mL; Qualitative Cytotoxic Effect at 2.0 ml dose [1]: −; Qualitative CPE at 2.0 ml dose HSV-1 E377 (HSV-1 strain E-377; HFF cells): +++; EC50 (HSV-1 strain E-377; CPE inhibition in HFF cells): 0.22 µg/mL; Qualitative CPE at 2.0 ml dose HSV-2 MS (HSV-2 strain MS): +++; EC50 (HSV-2 strain MS; CPE inhibition in HFF cells): 0.165 µg/mL"
CC1(C)CCC23CC[C@]4(C)C(CCC5[C@@]6(C)CCC(=O)C(C)(C)C6CC[C@]54C)C2C1OC3 (stereo partly drawn) [Allobetulon],,,,++,−,,++,"CC50 at 72 h [3, 4]: 0.3 µg/mL; Qualitative Cytotoxic Effect at 2.0 ml dose [1]: −; Qualitative CPE at 2.0 ml dose HSV-1 E377 (HSV-1 strain E-377; HFF cells): +++; EC50 (HSV-1 strain E-377; CPE inhibition in HFF cells): 0.3 µg/mL; Qualitative CPE at 2.0 ml dose HSV-2 MS (HSV-2 strain MS): +++; EC50 (HSV-2 strain MS; CPE inhibition in HFF cells): 0.3 µg/mL"
"CC1(C)CCC23CC[C@]4(C)C(CCC5[C@@]6(C)CCC(=O)C(C)(C)C6CC[C@]54C)C2C1OC3=O (stereo partly drawn) [Example 10, Allobetulon Lactone]",333.7 to 335.9 °C (dec.),,,,,,,
"CC1(C)CCC23CC[C@]4(C)C(CCC5[C@@]6(C)CC(Br)C(=O)C(C)(C)C6CC[C@]54C)C2C1OC3=O (stereo partly drawn) [Example 12, 2-Br-Allobetulonlacton]",338 to 342.8 °C (dec.),,,,,,,
"CC1(C)CCC23CC[C@]4(C)C(CCC5[C@@]6(C)C=C(O)C(=O)C(C)(C)C6CC[C@]54C)C2C1OC3=O (stereo partly drawn) [Example 13, Allobetulonlacton 1-ene-2-ol]",238.8 to 243.6 °C (dec.),,,,,,,
Allobetulin ethanolamine,,0.2 µg/mL,>0.25 µg/mL,,,>0.25 µg/mL,,
Allobetulin ethanolamine chlorohydrate,,0.125 µg/mL,0.125 µg/mL,,,0.125 µg/mL,,
Betulin glycerol oxalate,,,,,,,,EC50 (Epstein-Barr Virus): 0.0072 µg/mL; EC50 (Human Cytomegalovirus): >0.1 µg/mL; EC50 (Varicella-Zoster Virus): >0.02 µg/mL
